Experimental data taken from patent publication US10238616B2, “Immunomodulator” (WAKUNAGA PHARMACEUTICAL CO., LTD., priority 2014, dated 2019).

Legend:
IgA production [1] = experiment: Promoting effect of IgA production (in vitro) <1>; format: cell-based, mouse; settings: spleen lymphocytes of female C57BL/6N mice, 0.1 mM, three days at 37° C., compared with other sulfur-containing amino acid compounds
Procedure: (§1) Cells for the biological activity evaluation were prepared as follows. Female C57BL/6N mice for tests were purchased from CLEA Japan, Inc. After the purchase, the mice were acclimated for a week, and then sacrificed and the spleens were taken out. The excised spleens were crushed and passed through a mesh to collect lymphocytes, which were used as the cells for the evaluation test.
(§2) Mouse IgA Quantitation Kit manufactured by Bethyl laboratories, Inc was purchased and the amount of IgA produced was measured. The wash solution or culture supernatant to be measured was placed in a 96-well plate coated with an anti-IgA antibody. After adding various reaction reagents, the absorbance was measured by using a plate reader.
The lymphocytes obtained from the cells for the evaluation test of (2) above were prepared at 1×10^6 cells/mL with a 10% serum-containing medium and inoculated into a 24-well plate at 1 mL each, or prepared at 1×10^6 cells/200 μL and inoculated into a 48-well plate at 200 μL each. Subsequently, of the samples prepared in (1) above, those prepared in (1) (a) above were appropriately diluted and added to the 24-well plate so that the final concentration was 4 mg/mL, and those prepared in (1) (b) was added to the 48-well plate at 0.1 mM. After culturing for three days at 37° C., the supernatants were collected and the amount of IgA was measured by ELISA.

IgA production [2] = experiment: Promoting effect of IgA production (in vitro) <2>; format: cell-based, mouse; settings: spleen lymphocytes of female C57BL/6N mice, 0.03, 0.1 and 0.3 mM, three days at 37° C.
Procedure: as §1, §2
The lymphocytes obtained from the cells for the evaluation test of (2) above were prepared at 5×10^6 cells/mL with a 10% serum-containing medium and inoculated into a 48-well plate at 200 μL each.
To the cells, chemically synthesized cis-S-1-propenycysteine and trans-S-1-propenycysteine, and S-1-propenycysteine (a cis/trans mixture) prepared in Production Example 2 were added at concentrations of 0.03, 0.1, and 0.3 mM, followed by culturing at 37° C. for three days. Subsequently, the amount of IgA produced in the culture supernatants was measured by ELISA.

IgA production [3] = experiment: Promoting effect on IgA production under LPS stimulation (in vitro) <1>; format: cell-based, mouse; settings: spleen lymphocytes, 1 μg/mL Escherichia coli 055-derived LPS, 0.1 mM, compared with no stimulation
Procedure: as §1, §2
(§3) The lymphocytes obtained from the cells for the evaluation test of (2) above were prepared at 1×10^6 cells/mL with a 10% serum-containing medium and inoculated into a 24-well plate at 1 mL each. Subsequently, Escherichia coli 055-derived lipopolysaccharides (LPS) were added at 1 μg/mL, and then the samples prepared in (1) (b) above were added at 0.1 mM, followed by culturing at 37° C. for 24 hours or three days. Upon completion of culture, the supernatants were collected and the amounts of IL-6 and IgA were measured by ELISA.

IL-6 production [4] = experiment: Inhibitory effect on IL-6 production under LPS stimulation (in vitro) <1>; format: cell-based, mouse; settings: spleen lymphocytes, 1 μg/mL Escherichia coli 055-derived LPS, 0.1 mM
Procedure: as §1
(§4) Mouse IL-6 ELISA Ready-SET-Go! Kit manufactured by eBioscience was purchased and the amount of IL-6 produced was measured. The culture supernatant to be measured was placed in a 96-well plate coated with an anti-IL-6 antibody. After adding various reaction reagents, the absorbance was measured by using a plate reader.
as §3

IL-6 production [5] = experiment: Inhibitory effect on IL-6 production under LPS stimulation (in vitro) <2>; format: cell-based, mouse; settings: spleen lymphocytes, 3 μg/mL Salmonella-derived LPS, 0.3 mM, 24 hours at 37° C.
Procedure: as §1, §4
The lymphocytes obtained from the cells for the evaluation test of (2) above were prepared at 5×10^6 cells/mL with a 10% serum-containing medium and inoculated into a 48-well plate at 200 μL each. To these cells, chemically synthesized cis-S-1-propenycysteine and trans-S-1-propenycysteine, SAC, and S-1-propenycysteine (a cis/trans mixture) prepared in Production Example 2 were added at a concentration of 0.3 mM in the presence of 3 μg/mL Salmonella-derived lipopolysaccharides (LPS), followed by culturing at 37° C. for 24 hours. Upon completion of culture, the supernatants were collected and the amount of IL-6 was measured by ELISA.

IgA = experiment: Promoting effect of IgA production (in vivo) <1>: IgA in intestinal lavage fluids; parameters: species or system mouse; settings: female C57BL/6N mice, oral administration for five days, compared with water administration group
Procedure: (§5) Animals for the biological activity evaluation were reared as follows. Female C57BL/6N mice for tests were purchased from CLEA Japan, Inc. After the purchase, the mice were acclimated for a week, and then used as the animals for the evaluation test.
as §2
The animals for the evaluation test of (3) above were orally administered with the sample prepared in (1) (b) above for five days, and then sacrificed and the small intestines were removed. Phosphate buffer (5 mL) was passed through the small intestines and the contents of the small intestines and the lavage fluids collected. The collected products were combined and centrifuged, and the amount of IgA in the resulting supernatant was quantified by ELISA.

IgA-producing B cells [6] = experiment: Promoting effect of IgA production (in vivo) <2>: IgA-producing B cells in Peyer's patches; parameters: species or system mouse; settings: female C57BL/6N mice, oral administration for five days, compared with water administration group
Description: as §5
The animals for the evaluation test of (3) above were orally administered with the sample prepared in (1) (b) above for five days, and then sacrificed. The small intestines were removed, from which Peyer's patches were collected. The Peyer's patches were ground, to which Collagenase D was added to give a final concentration of 1 mg/mL and DNAase I was added to give a final concentration of 20 μg/mL. Treatment was continued for 30 minutes while shaking at 37° C., followed by centrifugation at 1,500 rpm. The resulting supernatant was removed. Then, 2 mL of 5% FBS-containing Hank's Balanced Salt Solution containing 5 mM EDTA was added, followed by treatment for five minutes while shaking at 37° C. Upon completion of treatment, the resultant was passed through a 40 μm mesh to remove tissue pieces and collect lymphocytes. […] Upon completion of treatment, 1×10^4 lymphocytes were analyzed by using a flow cytometer to count the number of IgA-producing B cells which reacted to the anti-mouse CD45 antibody (B220) and the anti-mouse immunoglobulin A antibody.

IgA-producing B cells [7] = experiment: Promoting effect of IgA production (in vivo) <3>: IgA-producing B cells in the peritoneal cavity; parameters: species or system mouse; settings: female C57BL/6N mice, oral administration for five days, compared with water administration group
Procedure: as §5
The animals for the evaluation test of (3) above were orally administered with the sample prepared in (1) (b) above for five days. The animals were sacrificed and a laparotomy was performed without breaking the peritoneum. Then, 3 mL of 5% FBS-containing Hank's Balanced Salt Solution was placed in a 5 mL syringe and injected into the peritoneal cavity using a 27G needle. Then, the peritoneum was pressed with fingers to spread the injected solution evenly throughout the peritoneal cavity, followed by collecting the intraperitoneal solution using a 18G needle. The intraperitoneal solution thus collected was centrifuged at 1,500 rpm for five minutes. The resulting supernatant was removed and peritoneal cells were collected. […] Upon completion of treatment, 1×10^4 lymphocytes were analyzed by using a flow cytometer to count the number of IgA-producing B cells which reacted to the anti-mouse CD45 antibody (B220) and the anti-mouse immunoglobulin A antibody.

| SMILES | amount of IgA in culture supernatant (ELISA), FIG. 2 (IgA production [1]) | amount of IgA produced in culture supernatants (ELISA), FIG. 8 (IgA production [2]) | amount of IgA under LPS stimulation (ELISA), FIG. 6 (IgA production [3]) | amount of IL-6 secretion induced by LPS stimulation (ELISA), FIG. 7 (IL-6 production [4]) | IL-6 secretion induced by LPS stimulation (ELISA), FIG. 9 (IL-6 production [5]) | amount of IgA in the intestinal lavage fluids (ELISA), FIG. 3 (IgA) | number of IgA-producing B cells in Peyer's patches (flow cytometer), FIG. 4 (IgA-producing B cells [6]) | number of IgA-producing B cells in the peritoneal cavity (flow cytometer), FIG. 5 (IgA-producing B cells [7]) |
| --- | --- | --- | --- | --- | --- | --- | --- | --- |
| CC=CSCC(N)C(=O)O (centres unmarked) [S-1-propenycysteine, S-1-propenylcysteine] | promoted IgA production more strongly than other sulfur-containing amino acid compounds | significantly enhanced IgA production | higher promoting effect on IgA production than under no stimulation | reduced | significantly inhibited IL-6 secretion | increased | increased | increased |
| C/C=C\SC[C@H](N)C(=O)O [cis-S-1-propenycysteine, cis-S-1-Propenylcysteine] | – | virtually did not affect IgA production | – | – | – | – | – | – |
| C/C=C/SC[C@H](N)C(=O)O [trans isomer, trans-S-1-Propenylcysteine] | – | significantly enhanced IgA production | – | – | significantly inhibited IL-6 secretion | – | – | – |
